Experimental data reported in PubChem BioAssay (NCI).
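A five-concentration, 48-hour dose response in 96-well plates underlies each endpoint, interpolated linearly between surrounding concentrations. GI50 = concentration required for 50% inhibition of growth. TGI denotes the concentration required for complete inhibition of growth.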 *1 amine or outer side, *2 acyl side, *3 side chain or, on linkers, in order; H or OH if unused. Where a SMILES comes first, the peptide text is derived from it. [ ]: non-standard residue; d: D form. X33 = C=CCC(O[*:1])C(=O)[*:2]; NMeV = CN[CH](C(=O)O)C(C)C; NMeA = CN[CH](C)C(=O)O; βAla = NCCC(=O)O

Columns and labels:
Assay in all cases: DTP human tumour cell line panel, 48 h
OVCAR-4 ovarian = test system: OVCAR-4 ovarian
SF-295 CNS = test system: SF-295 CNS
HCT-116 colon = test system: HCT-116 colon
OVCAR-5 ovarian = test system: OVCAR-5 ovarian
RPMI-8226 leukemia = test system: RPMI-8226 leukemia

| Compound | TGI (OVCAR-4 ovarian) | TGI (SF-295 CNS) | TGI (HCT-116 colon) | TGI (OVCAR-5 ovarian) | TGI (RPMI-8226 leukemia) | GI50 (RPMI-8226 leukemia) |
| --- | --- | --- | --- | --- | --- | --- |
| Nc1nc(N)c2[nH]cnc2n1 (tested in a mixture with another compound) | > 100 µM | > 100 µM | 41.8 µM | > 100 µM | > 100 µM |  |
| Cn1c(=O)c2c(ncn2CCCCOc2ccc3c(c2)[n+]([O-])nc(N)[n+]3[O-])n(C)c1=O | > 100 µM | > 100 µM | > 100 µM |  | > 100 µM |  |
| COC(=O)C1=C(C)NC(C)=C(C(=O)OC)C1c1cccc(NO)c1 | 27.8 µM | 83.1 µM | 26.4 µM | 30.1 µM | > 100 µM |  |
| O=C1NC(=O)C(COCc2ccccc2)C2=C1SCCC2 (configuration not stated) | > 100 µM | > 100 µM | > 100 µM |  | > 100 µM |  |
| COC(=O)C1=C(CCCCO[Si](C)(C)C(C)(C)C)NC(=O)N2[C@@H](CCOCc3ccccc3)CC[C@H]12 | > 100 µM | > 100 µM | 24.6 µM | > 100 µM | > 100 µM |  |
| CC(C)(CO)NC(=O)Nc1c(C(F)(F)F)cc(-c2ccccc2)[nH]c1=O |  | > 100 µM | > 100 µM | > 100 µM |  |  |
| CCOC(=O)C1(C/C=C\CBr)CCCCCCCCCCC1=O (configuration not stated) | 27.4 µM | 31.7 µM | > 54.2 µM | 35.2 µM | 9.02 µM |  |
| C/C(=N\NC(=S)NC(C)(C)C)c1ccccn1 | > 100 µM | > 100 µM | > 100 µM |  | 3.72 µM |  |
| O=c1c2cn[nH]c2nc2scc(-c3ccc(Cl)cc3)n12 | > 100 µM | > 100 µM | > 100 µM | > 100 µM | > 100 µM |  |
| CC(C)C/C=C/C1=NN(c2cccc(S(=O)(=O)O)c2)C2(C1)SCC(=O)N2c1nc2ccccc2s1 (configuration not stated) | > 100 µM |  | > 100 µM | > 100 µM | 49.6 µM |  |
| COc1cc2c(cc1OC)C(C)N(C)c1c-2c(OC(C)=O)cc2cc(OC)c(OC)cc12 (configuration not stated) | > 45.4 µM | 53.4 µM | 35.2 µM | > 100 µM | > 59 µM |  |
| COc1ccc(C2(O)c3ccccc3C(=O)N(C)C2(O)c2ccc(OC)cc2)cc1 (configuration not stated) | > 100 µM | > 100 µM | > 100 µM | > 100 µM | > 100 µM |  |
| CC1(C)OC(=O)C2(O1)C(=O)C1CCCCC12 (configuration not stated) | > 100 µM | > 100 µM | > 100 µM | > 100 µM | > 100 µM |  |
| CCCCCC[C@H]1C(=O)O[C@H](C)[C@H](NC(=O)c2cccc(NC=O)c2OC)C(=O)O[C@@H](C)[C@@H]1OC(=O)CC(C)C (tested in a mixture with another compound) | 24.9 µM | > 100 µM | 50.3 µM | > 100 µM | > 100 µM |  |
| CC(=O)N(CN1C(=O)CCC1C(=O)O)c1cccc(O)c1 (configuration not stated) | > 100 µM | > 100 µM | > 100 µM | > 100 µM | > 100 µM |  |
| COC(C)(C)CCc1[nH]c2ccccc2c1CC(=O)NCCc1cncn1C | > 100 µM |  | > 100 µM | > 100 µM | > 100 µM |  |
| CCCCOCCOC1=CC(=O)c2c(O)ccc(O)c2C1=O | 3.33 µM | 3.02 µM | 2.85 µM |  | > 10 µM |  |

| Compound | TGI (OVCAR-4 ovarian) | TGI (SF-295 CNS) | TGI (HCT-116 colon) | TGI (OVCAR-5 ovarian) | TGI (RPMI-8226 leukemia) | GI50 (RPMI-8226 leukemia) |
| --- | --- | --- | --- | --- | --- | --- |
| O=C1OCC/C1=C/c1ccc(N=Nc2c(O)ccc3ccccc23)cc1 | 37.4 µM | 47.8 µM | 34.6 µM | 42.2 µM | 53.8 µM |  |
| CC12c3c4cc(Br)cc3Oc3cc(Br)cc(c31)Oc1cc(Br)cc(c12)O4 | > 100 µM | > 100 µM | > 100 µM | > 100 µM | > 100 µM |  |
| C=CCC1OC(=O)CCNC(=O)C(C)N(C)C(=O)C(C(C)C)N(C)C(=O)C(C(C)CC)NC(=O)C2CCCN2C1=O (configuration not stated) (cyclo([X33]PI[NMeV][NMeA][βAla]); configuration not given here) | > 100 µM | > 100 µM | > 100 µM | > 100 µM | 7.84 µM |  |
| CN(C)CCn1c(=O)c2ccc3c4c(nn3CCN(C)C)c3cc(O)ccc3n(c1=O)c24 | 0.392 µM | 0.271 µM | 1.08 µM | 1.26 µM | 0.406 µM |  |
| Cc1ccc(S(=O)(=O)n2c3c(c4ccccc42)CCN2CCC(Br)C[C@@H]32)cc1 (some centres not stated) | 27 µM | 23.1 µM |  | 31.9 µM | 24.4 µM |  |
| O=c1[nH]c(-c2ccccc2)nc2c1sc1nc3ccccc3n12 | > 100 µM | > 100 µM | > 100 µM | > 100 µM | > 100 µM |  |
| CC(C)(C)OC(=O)N/N=C(/N)Cc1ccccc1 | > 100 µM | > 100 µM | > 100 µM | > 100 µM | > 100 µM |  |
| NC(CCCCNC(=O)CNC(=O)OCc1ccccc1)C(=O)NC(CCCCNC(=O)CNC(=O)OCc1ccccc1)C(=O)NC(CCCCNC(=O)CNC(=O)OCc1ccccc1)C(=O)NC(CCCCNC(=O)CNC(=O)OCc1ccccc1)C(=O)NC(CCCCNC(=O)CNC(=O)OCc1ccccc1)C(=O)NC(CCCCNC(=O)CNC(=O)OCc1ccccc1)C(=O)O (configuration not stated) | > 75 µM |  | > 75 µM | > 75 µM | > 75 µM |  |
| CCOP(=O)(OCC)C1=C(c2ccccc2)OC(N)=C(C#N)C1c1ccc(Cl)cc1 (configuration not stated) | > 100 µM | > 100 µM | > 100 µM | > 100 µM | > 100 µM |  |
| CCOC(=O)/C=C(\C(=O)OCC)n1ccc(=O)n(CC(=O)OCC)c1=O | > 31.2 µM | 34.6 µM | 3.44 µM | 10.1 µM | 7.67 µM | 2.81 µM |
| COc1cc(/C=C2\C(=O)N(Cc3ccccc3)C(c3ccccc3)S2(=O)=O)cc(OC)c1OC (configuration not stated) | > 100 µM | > 100 µM | > 100 µM | > 100 µM |  |  |
| O=c1oc(-c2ccccc2)c(-c2ccccc2)n1-c1ccc(Br)cc1 | 96.4 µM | > 100 µM | > 100 µM | > 100 µM |  |  |
| COC(=O)C1(Cc2ccc3c(c2)CCC3)Cc2ccc3c(c2C1)CCC3 (configuration not stated) | 99.1 µM | 60.7 µM | 54.8 µM |  | 46.9 µM |  |
| O=C1[C@@H]2C[C@@H](O)CN2C(=O)c2ccccc2N1CCCO |  | > 100 µM | > 100 µM | > 100 µM | > 100 µM |  |
| O=C1/C(=C/c2c(Cl)[nH]c3ccccc23)c2ccccc2N1c1ccccc1 |  | 8.54 µM | 15.6 µM | 81.9 µM | 22.3 µM |  |
| CC1=N[C@](C)(C2CC3C=CC2C3=O)COC1=O (some centres not stated) | > 100 µM | > 100 µM | > 100 µM | > 100 µM |  |  |
| O=C(Cc1ccccc1)NNc1nc(NNC(=O)c2ccncc2)nc(Nc2cccc(Cl)c2)n1 | > 10 µM |  |  |  | > 10 µM |  |
